In patent US20030170694A1, “Stabilized nucleic acids in gene and drug discovery and methods of use” (priority 2001, published 2003):
≈ marks a conversion by molar mass, not a printed value. Where two headings read alike, the source gives them in different places. Positions of bridges follow the written chain, without caps; N, C: chain ends. Non-standard residues stand in square brackets, D forms with d. Residues, ends and D or L forms follow the SMILES beside them. *: point of attachment. Ileψ(thiazoline)Cys = CC[C@H](C)[C@H](N)C1=N[C@H](C(=O)*)CS1; dOrn = NCCC[C@@H](N)C(=O)O

How the values were obtained:
[1] = test system: E. coli cells transcribing antisense RNA to rplL and rplJ (AS-rplL/J); test: microbe, parasite or virus in culture; assay type: cell-based; conditions: for Fold Increase: IC50 without IPTG vs IC50 with 400 μM IPTG; for IC50: Escherichia coli; for Sensitivity (increased sensitivity observed in the presence of IPTG): statistically significant decrease in IC50 in the presence of inducer
Method: Antibiotics of various chemical classes and modes of action were purchased from Sigma Chemicals (St. Louis, Mo.). Stock solutions were prepared by dissolving each antibiotic in an appropriate aqueous solution based on information provided by the manufacturer. The final working solution of each antibiotic contained no more than 0.2% (w/v) of any organic solvent. To determine their potency against a bacterial strain engineered for transcription of an antisense comprising a nucleotide sequence complementary to a proliferation-required 50S ribosomal protein, each antibiotic was serially diluted two-or three-fold in growth medium supplemented with the appropriate antibiotic for maintenance of the antisense construct. At least ten dilutions were prepared for each antibiotic. 25 μL aliquots of each dilution were transferred to discrete wells of a 384-well microplate (the assay plate) using a multi-channel pipette. Quadruplicate wells were used for each dilution of an antibiotic under each treatment condition (plus and minus inducer). Each assay plate contained twenty wells for cell growth controls (growth medium replacing antibiotic), ten wells for each treatment (plus and minus inducer, in this example IPTG). Assay plates were usually divided into the two treatments: half the plate containing induced cells and an appropriate concentrations of inducer (in this example IPTG) to maintain the state of induction, the other half containing non-induced cells in the absence of IPTG.
Cells for the assay were prepared as follows. Bacterial cells containing a construct, from which transcription of antisense nucleic acid comprising a nucleotide sequence complementary to rplL and rplJ (AS-rplL/J), which encode proliferation-required 50S ribosomal subunit proteins, is inducible in the presence of IPTG, were grown into exponential growth (OD600 0.2 to 0.3) and then diluted 1:100 into fresh medium containing either 400 μM or 0 μM inducer (IPTG). These cultures were incubated at 37° C. for 2.5 hr. After a 2.5 hr incubation, induced and non-induced cells were respectively diluted into an assay medium at a final OD600 value of 0.0004. The medium contained an appropriate concentration of the antibiotic for the maintenance of the antisense construct. In addition, the medium used to dilute induced cells was supplemented with 800 μM IPTG so that addition to the assay plate would result in a final IPTG concentration of 400 μM. Induced and non-induced cell suspensions were dispensed (25 μl/well) into the appropriate wells of the assay plate as discussed previously. The plate was then loaded into a plate reader, incubated at constant temperature, and cell growth was monitored in each well by the measurement of light scattering at 595 nm. Growth was monitored every 5 minutes until the cell culture attained a stationary growth phase. For each concentration of antibiotic, a percentage inhibition of growth was calculated at the time point corresponding to mid-exponential growth for the associated control wells (no antibiotic, plus or minus IPTG). For each antibiotic and condition (plus or minus IPTG), a plot of percent inhibition versus log of antibiotic concentration was generated and the IC50 determined.

[2] = test system: E. coli transformed with IPTG-inducible antisense clones; test: Cell-based assay of antibiotic sensitivity in E. coli transcribing non-stabilized antisense RNA
Description: The effectiveness of the above cell-based assays in which the level or activity of a gene product required for proliferation was reduced was validated using constructs transcribing a non-stabilized antisense RNA to the proliferation required E. coli genes rplL, rplJ and rplW encoding ribosomal proteins L7/L12, L10 and L23 respectively. These proteins are essential components of the protein synthesis apparatus of the cell and as such are required for proliferation. Constructs transcribing antisense RNA to several other genes (elaD, visC, yohH, and atpE/B), the products of which are not involved in protein synthesis were used for comparison.
First, pLex5BA (Krause et al., J. Mol. Biol. 274: 365 (1997), the disclosure of which is incorporated herein by reference in its entirety) vectors containing antisense constructs to either rplW or to elaD were introduced into separate E. coli cell populations. […]
The cell populations containing vectors producing AS-elaD or AS-rplW were exposed to a range of IPTG concentrations in liquid medium to obtain the growth inhibitory dose curve for each clone (FIG. 5). First, seed cultures were grown to a particular turbidity measured by the optical density (OD) of the growth solution. […] The cells were grown for up to 15 hours and the extent of growth was determined by measuring the optical density of the cultures at 600 nm. […]

| Molecule | Fold Increase [1] | Sensitivity (increased sensitivity observed in the presence of IPTG) [1] | also measured |
| --- | --- | --- | --- |
| CN(C)c1ccc(O)c2c1C[C@H]1C[C@H]3[C@H](N(C)C)C(O)=C(C(N)=O)C(=O)[C@@]3(O)C(O)=C1C2=O [Minocycline] | 172 |  |  |
| CC1COc2c(N3CCN(C)CC3)c(F)cc3c(=O)c(C(=O)O)cn1c23 (centres unmarked) [Ofloxacin] | 1 |  |  |
| CN[C@H](CC(C)C)C(=O)N[C@H]1C(=O)N[C@@H](CC(N)=O)C(=O)N[C@H]2C(=O)N[C@H]3C(=O)N[C@H](C(=O)N[C@H](C(=O)O)c4cc(O)cc(O)c4-c4cc3ccc4O)[C@H](O)c3ccc(c(Cl)c3)Oc3cc2cc(c3O[C@@H]2O[C@H](CO)[C@@H](O)[C@H](O)[C@H]2O[C@H]2C[C@](C)(N)[C@H](O)[C@H](C)O2)Oc2ccc(cc2Cl)[C@H]1O [Vancomycin] | 2 | No | IC50 ([1]; read-out: IC50 (+IPTG)): 72.5 µg/mL (≈ 50.1 µM); IC50 ([1]; read-out: IC50 (−IPTG)): 145 µg/mL (≈ 100 µM) |
| NC[C@H]1O[C@H](O[C@H]2[C@H](O)[C@@H](O[C@H]3O[C@H](CO)[C@@H](O)[C@H](N)[C@H]3O)[C@H](N)C[C@@H]2N)[C@H](N)C[C@@H]1O [Tobramycin] | 51 | Yes |  |
| CCn1cc(C(=O)O)c(=O)c2ccc(C)nc21 [Nalidixic acid] | 1 | No | sensitivity of clone to the antibiotic ([2]; clone transcribing antisense to rplL and rplJ (AS-rplL/J)): does not show increased sensitivity |
| [H]/N=C(/N)N[C@H]1[C@H](O)[C@@H](O)[C@H](O[C@@H]2O[C@@H](C)[C@](O)(C=O)[C@H]2O[C@@H]2O[C@@H](CO)[C@H](O)[C@@H](O)[C@@H]2NC)[C@@H](N/C(N)=N\[H])[C@@H]1O [Streptomycin] | 70 | Yes |  |
| CO/N=C(\C(=O)N[C@@H]1C(=O)N2C(C(=O)O)=C(COC(C)=O)CS[C@H]12)c1csc(N)n1 [Cefotaxime] | 1 | No |  |
| CC[C@H]1OC(=O)[C@H](C)[C@@H](O[C@H]2C[C@@](C)(OC)[C@@H](O)[C@H](C)O2)[C@H](C)[C@@H](O[C@@H]2O[C@H](C)C[C@H](N(C)C)[C@H]2O)[C@](C)(O)C[C@@H](C)C(=O)[C@H](C)[C@@H](O)[C@]1(C)O [Erythromycin] | 40 | Yes | sensitivity of clones to the antibiotic ([2]; clones transcribing antisense to protein synthesis genes (L7/L12 & L10, L7/L12, L22, L18, rRNA, Elongation Factor G), initial experiments): increased sensitivity |
| CC[C@H](C)[C@H](N)C1=N[C@H](C(=O)N[C@@H](CC(C)C)C(=O)N[C@H](CCC(=O)O)C(=O)N[C@H](C(=O)N[C@H]2CCCCNC(=O)[C@H](CC(N)=O)NC(=O)[C@@H](CC(=O)O)NC(=O)[C@H](Cc3cnc[nH]3)NC(=O)[C@@H](Cc3ccccc3)NC(=O)[C@H]([C@@H](C)CC)NC(=O)[C@@H](CCCN)NC2=O)[C@@H](C)CC)CS1 [Bacitracin] ({Ileψ(thiazoline)Cys}-L[dE]IK[dOrn]I[dF]H[dD]N; lactam 4-C) | 1 | No | IC50 ([1]; read-out: IC50 (+IPTG)): 4.68 µg/mL (≈ 3.29 µM); IC50 ([1]; read-out: IC50 (−IPTG)): 4.08 µg/mL (≈ 2.87 µM) |
| O=C(N[C@H](CO)[C@H](O)c1ccc([N+](=O)[O-])cc1)C(Cl)Cl [Chloramphenicol] | 307 | Yes |  |
| CO[C@@]1(NC(=O)Cc2cccs2)C(=O)N2C(C(=O)O)=C(COC(N)=O)CS[C@@H]21 [Cefoxitin] | 1 | No |  |
| CCC[C@@H]1C[C@@H](C(=O)N[C@@H]([C@H]2O[C@H](SC)[C@H](O)[C@@H](O)[C@H]2O)[C@@H](C)O)N(C)C1 [Lincomycin] | 145 | Yes |  |
| CN[C@@H]1[C@H](O)[C@H](NC)[C@H]2O[C@@]3(O)C(=O)C[C@@H](C)O[C@H]3O[C@@H]2[C@H]1O [Spectinomycin] |  | Yes | IC50 ([1]; read-out: IC50 (+IPTG)): < 0.156 µg/mL |
| CC(=O)O[C@H]1C[C@@]2(C)[C@@H](C[C@@H](O)[C@H]3[C@@]4(C)CC[C@@H](O)[C@@H](C)[C@@H]4CC[C@@]32C)/C1=C(\CCC=C(C)C)C(=O)O [Fusidic acid] | 94 | Yes |  |
| Gentamicin | 141 | Yes | IC50 (+IPTG) ([1]; induced AS-rplL/J cells, 400 μM IPTG): 0.01919 µg/mL; IC50 (−IPTG) ([1]; non-induced AS-rplL/J cells, 0 μM IPTG): 2.715 µg/mL |
| C[C@H]1c2cccc(O)c2C(=O)C2=C(O)[C@]3(O)C(=O)C(C(N)=O)=C(O)[C@@H](N(C)C)[C@@H]3[C@@H](O)[C@@H]21 [Doxycycline] | 15 |  |  |
| CN(C)[C@@H]1C(O)=C(C(N)=O)C(=O)[C@@]2(O)C(O)=C3C(=O)c4c(O)cccc4[C@@](C)(O)[C@H]3C[C@@H]12 [Tetracycline] | 109 |  |  |
